Values of other authors, collected in the PKSmart pharmacokinetics tables (Seal et al. 2025).
*1 amine or outer side, *2 acyl side, *3 side chain or, on linkers, in order; H or OH if unused. Where a SMILES comes first, the peptide text is derived from it. Bridges are numbered along the chain shown (N, C = ends). [ ]: non-standard residue; d: D form. The star is where a group is joined. ξ: configuration not given here. X1 = O=C1CC(C(=O)[*:2])N([*:1])CC1CS[C@@H]1CN2CCC1CC2; ξThr(3R)(O-yl) = C[C@@H](O[*:3])C(N[*:1])C(=O)[*:2]; ξNMePhe(4-NMe2) = CNC(Cc1ccc(N(C)C)cc1)C(=O)O; Picolinoyl(3-OH) = O=C(c1ncccc1O)*; ξPhg = NC(C(=O)O)c1ccccc1; ξAbu = CCC(N)C(=O)O; ξP = O=C(O)C1CCCN1

Experiment: Lombardo, Berellini, Obach 2018, Drug Metab Dispos 46:1466, doi 10.1124/dmd.118.082966
Settings: human; for MRT / clearance / half-life / Vd: in vivo, iv; for fraction unbound: plasma

In the case of `CCCC(NC(C)C(=O)N1C(C(=O)O)C[C@@H]2CCCC[C@@H]21)C(=O)O` (stereo partly specified), the MRT is given as 7.6 h, the clearance is given as 0.102 L/h/kg and the half-life is given as 29 h. The fraction unbound was 0.16.

In the case of `Cc1ccc(C(CN)CC(=O)O)cc1` (stereo unspecified), the MRT is given as 6.36 h, the Vd is given as 0.65 L/kg and the clearance is given as 0.102 L/h/kg. For the same molecule, the half-life was 5.24 h and the fraction unbound was 0.69.

In the case of `C[N+]1(CC2CC2)[C@@H]2C[C@@H](OC(=O)C(CO)c3ccccc3)C[C@H]1[C@@H]1O[C@@H]12` (stereo partly specified), the MRT is listed as 0.74 h, the Vd is listed as 1.12 L/kg and the clearance is listed as 1.5 L/h/kg. For the same molecule, the half-life was 0.83 h.

In the case of `O=C(/C=C/c1ccc(O)c(O)c1)O[C@@H]1[C@H](O)C[C@@](O)(C(=O)O)C[C@H]1OC(=O)/C=C/c1ccc(O)c(O)c1`, the MRT is given as 0.3 h, the Vd is given as 0.63 L/kg and the clearance is given as 2.07 L/h/kg. For the same molecule, the half-life was 0.57 h.

For `COC(=O)c1cnc2n1CCc1ccccc1C2=C1CCN(CCc2ccc(OCc3ccc4ccccc4n3)cc2)CC1`, the MRT is listed as 7.1 h, the Vd is listed as 6.03 L/kg and the clearance is listed as 0.848 L/h/kg. The half-life was 10.6 h and the fraction unbound was 0.001.

For `Cn1nnnc1SCC1=C(C(=O)O)N2C(=O)C(=NC(=O)C(NOCC(=O)O)c3cc[nH]n3)[C@H]2SC1` (stereo partly specified), the MRT is listed as 1.8 h, the Vd is listed as 0.22 L/kg and the clearance is listed as 0.11 L/h/kg. For the same molecule, the half-life was 1.33 h.

For `CCN1CC(CCN2CCOCC2)C(c2ccccc2)(c2ccccc2)C1=O` (stereo unspecified), the MRT is listed as 3.7 h, the Vd is listed as 1.2 L/kg and the clearance is listed as 0.318 L/h/kg. The half-life was 4.1 h.

For `C[C@@H](N/C(=N\c1ccncc1)NC#N)C(C)(C)C`, the MRT is listed as 3.2 h, the Vd is listed as 1.1 L/kg and the clearance is listed as 0.341 L/h/kg. For the same molecule, the half-life was 2.5 h and the fraction unbound was 0.6.

In the case of `CC(=O)Nc1c(I)c(C(=O)O)c(I)c(N(C)C(C)=O)c1I`, the MRT is listed as 1 h, the Vd is listed as 0.17 L/kg and the clearance is listed as 0.162 L/h/kg. For the same molecule, the half-life was 1.3 h and the fraction unbound was 1.

For `NS(=O)(=O)c1cc(C2(O)NC(=O)c3ccccc32)ccc1Cl` (stereo unspecified), the MRT is given as 43 h, the Vd is given as 3.9 L/kg and the clearance is given as 0.09 L/h/kg. The half-life was 36 h.

In the case of `Oc1ccc([C@H]2CNCCc3c2cc(O)c(O)c3Cl)cc1`, the MRT is listed as 0.2 h, the Vd is listed as 0.5 L/kg and the clearance is listed as 2.49 L/h/kg. The half-life was 1 h and the fraction unbound was 0.12.

For `CCOc1cc(CC(=O)N[C@@H](CC(C)C)c2ccccc2N2CCCCC2)ccc1C(=O)O`, the MRT is given as 1.88 h, the Vd is given as 0.315 L/kg and the clearance is given as 0.295 L/h/kg. For the same molecule, the half-life was 1.69 h.

For `CCN(CC)CC#CCOC(=O)C(O)(c1ccccc1)C1CCCCC1` (stereo unspecified), the MRT is listed as 2.7 h, the Vd is listed as 0.85 L/kg and the clearance is listed as 0.306 L/h/kg. The half-life was 7.2 h and the fraction unbound was 0.0034.

In the case of `Cc1ccccc1C(=O)Nc1ccc(C(=O)N2CCC[C@H](O)c3cc(Cl)ccc32)c(C)c1`, the MRT is given as 3.5 h, the Vd is given as 0.5 L/kg and the clearance is given as 0.144 L/h/kg. For the same molecule, the half-life was 2.9 h and the fraction unbound was 0.01.

In the case of `CCC1C(=O)N(C)c2cnc(Nc3ccc(C(=O)N[C@H]4CC[C@H](N5CCN(CC6CC6)CC5)CC4)cc3OC)nc2N1C(C)C` (stereo partly specified), the MRT is listed as 116 h, the Vd is listed as 80.5 L/kg and the clearance is listed as 0.696 L/h/kg. The half-life was 113 h.

In the case of `CCON=C(C(=O)NC1C(=O)N2C(C(=O)[O-])=C(Sc3nc(-c4cc[n+](C)cc4)cs3)CS[C@H]12)c1nsc(NP(=O)(O)O)n1` (stereo partly specified), the MRT is listed as 0.11 h, the Vd is listed as 0.53 L/kg and the clearance is listed as 5.02 L/h/kg. For the same molecule, the half-life was 0.09 h and the fraction unbound was 0.8.

In the case of `CCCCC(C)(C)[C@@H](O)/C=C\[C@@H]1[C@H](C/C=C/CCCC(=O)O)[C@@H](Cl)C[C@@H]1O`, the MRT is given as 0.2 h, the Vd is given as 0.16 L/kg and the clearance is given as 0.792 L/h/kg. For the same molecule, the half-life was 0.8 h.

For `CC=CC1=C(C(=O)O)N2C(=O)C(NC(=O)C(N)c3ccc(O)cc3)[C@H]2SC1` (stereo partly specified), the MRT is listed as 1.2 h, the Vd is listed as 0.21 L/kg and the clearance is listed as 0.174 L/h/kg. The half-life was 1.2 h.

In the case of `CCOc1ccc(CC2=NCCc3cc(OCC)c(OCC)cc32)cc1OCC`, the MRT is listed as 9 h, the Vd is listed as 1.9 L/kg and the clearance is listed as 0.21 L/h/kg. The half-life was 9.3 h.

For `CCC1NC(=O)C(NC(=O)c2ncccc2O)[C@@H](C)OC(=O)C(c2ccccc2)NC(=O)C2CC(=O)C(CS[C@@H]3CN4CCC3CC4)CN2C(=O)C(Cc2ccc(N(C)C)cc2)N(C)C(=O)C2CCCN2C1=O` (stereo partly drawn) ({Picolinoyl(3-OH)}-[ξThr(3R)(O-yl)][ξAbu][ξP][ξNMePhe(4-NMe2)][X1][ξPhg]; ester 1-C), the MRT is given as 0.7 h, the Vd is given as 0.67 L/kg and the clearance is given as 0.96 L/h/kg. For the same molecule, the half-life was 0.87 h and the fraction unbound was 0.34.

For `NS(=O)(=O)c1cc(C(=O)O)cc(N2CCCC2)c1Oc1ccccc1`, the MRT is given as 0.91 h, the Vd is given as 0.17 L/kg and the clearance is given as 0.186 L/h/kg. For the same molecule, the half-life was 1.3 h and the fraction unbound was 0.058.

For `CN(C)CCO[C@]1(c2ccccc2)C[C@H]2CC[C@]1(C)C2(C)C`, the MRT is given as 26.6 h, the Vd is given as 7.7 L/kg and the clearance is given as 0.293 L/h/kg. For the same molecule, the half-life was 26.6 h and the fraction unbound was 0.05.

In the case of `C=CCN1CC[C@]23c4c5ccc(O)c4OC2C(=O)CC[C@@]3(O)[C@H]1C5` (stereo partly specified), the MRT is listed as 1.2 h, the Vd is listed as 1.7 L/kg and the half-life is listed as 1.1 h. For the same molecule, the fraction unbound was 0.54.

For `Cc1cc(O)c2c(=O)c3c(O)cc(O)c4c5c(O)cc(O)c6c(=O)c7c(O)cc(C)c8c1c2c(c34)c(c78)c65`, the MRT is listed as 32 h, the Vd is listed as 0.25 L/kg and the clearance is listed as 0.0078 L/h/kg. For the same molecule, the half-life was 42 h.

In the case of `CC1(C)C(\C=C/C=C/C=C/C=C2\N(CCCCS(=O)(=O)O)c3ccc4ccccc4c3C2(C)C)=[N+](CCCCS(=O)(=O)[O-])c2ccc3ccccc3c21`, the MRT is given as 0.086 h, the Vd is given as 0.035 L/kg and the clearance is given as 0.408 L/h/kg. For the same molecule, the half-life was 0.065 h and the fraction unbound was 0.05.

For `CN1[C@@H]2C[C@@H](OC(=O)C(CO)c3ccccc3)C[C@H]1[C@@H]1O[C@@H]12` (stereo partly specified), the MRT is listed as 3.2 h.

For `CC(=N)N1CC[C@H](Oc2ccc(C(Cc3ccc4ccc(C(=N)N)cc4c3)C(=O)O)cc2)C1` (stereo partly specified), the MRT is listed as 14.4 h, the Vd is listed as 1.55 L/kg and the clearance is listed as 0.112 L/h/kg. The half-life was 24 h.

In the case of `CCOc1ccc2c(c1)[C@]1(CC[C@H](OCCN3CCOCC3)CC1)C(=O)N2S(=O)(=O)c1ccc(C(=O)NC(C)(C)C)cc1OC`, the MRT is given as 9.4 h, the Vd is given as 7 L/kg and the clearance is given as 0.738 L/h/kg. The half-life was 10.4 h and the fraction unbound was 0.1.

In the case of `O=C(O)C1N=C(c2ccccc2)c2cc(Cl)ccc2NC1=O` (stereo unspecified), the MRT is listed as 3 h, the Vd is listed as 0.2 L/kg and the clearance is listed as 0.066 L/h/kg. The half-life was 2.4 h.

In the case of `CC(=O)NC(CO)C(=O)NC(CC(=O)O)C(=O)NC(CCCCN)C(=O)N1CCCC1C(=O)O` (stereo unspecified) (Ac-SDKP-OH; configuration not given here), the clearance is listed as 1.12 L/h/kg and the half-life is listed as 0.08 h.

For `CC(C(=O)O)c1ccc(C(=O)c2cccs2)cc1` (stereo unspecified), the MRT is listed as 0.88 h, the Vd is listed as 0.04 L/kg and the clearance is listed as 0.0456 L/h/kg. The half-life was 2.1 h.

For `CN(c1nc2ccccc2s1)C1CCN(C[C@@H](O)COc2ccc(F)cc2)CC1`, the MRT is listed as 22.6 h, the Vd is listed as 5.5 L/kg and the clearance is listed as 0.243 L/h/kg. For the same molecule, the half-life was 18.9 h and the fraction unbound was 0.014.

In the case of `C[C@@H](c1cccnc1F)c1c(CCN(C)C)sc2ccccc12`, the MRT is given as 10 h, the Vd is given as 5.73 L/kg and the clearance is given as 0.624 L/h/kg. For the same molecule, the half-life was 15 h.

In the case of `C/C(=C\c1csc(C)n1)[C@@H]1C[C@@H]2O[C@]2(C)CCC[C@H](C)[C@H](O)C(C)C(=O)C(C)(C)[C@@H](O)CC(=O)N1` (stereo partly specified), the MRT is given as 18 h, the Vd is given as 11 L/kg and the clearance is given as 0.6 L/h/kg. For the same molecule, the half-life was 17 h and the fraction unbound was 0.2.
